pEC50, pIC50: −log10 of the molar value.
Key:
Androgen receptor = target: T1, Androgen receptor (Homo sapiens, UniProt P10275)
T1 sequence (P10275 whole entry): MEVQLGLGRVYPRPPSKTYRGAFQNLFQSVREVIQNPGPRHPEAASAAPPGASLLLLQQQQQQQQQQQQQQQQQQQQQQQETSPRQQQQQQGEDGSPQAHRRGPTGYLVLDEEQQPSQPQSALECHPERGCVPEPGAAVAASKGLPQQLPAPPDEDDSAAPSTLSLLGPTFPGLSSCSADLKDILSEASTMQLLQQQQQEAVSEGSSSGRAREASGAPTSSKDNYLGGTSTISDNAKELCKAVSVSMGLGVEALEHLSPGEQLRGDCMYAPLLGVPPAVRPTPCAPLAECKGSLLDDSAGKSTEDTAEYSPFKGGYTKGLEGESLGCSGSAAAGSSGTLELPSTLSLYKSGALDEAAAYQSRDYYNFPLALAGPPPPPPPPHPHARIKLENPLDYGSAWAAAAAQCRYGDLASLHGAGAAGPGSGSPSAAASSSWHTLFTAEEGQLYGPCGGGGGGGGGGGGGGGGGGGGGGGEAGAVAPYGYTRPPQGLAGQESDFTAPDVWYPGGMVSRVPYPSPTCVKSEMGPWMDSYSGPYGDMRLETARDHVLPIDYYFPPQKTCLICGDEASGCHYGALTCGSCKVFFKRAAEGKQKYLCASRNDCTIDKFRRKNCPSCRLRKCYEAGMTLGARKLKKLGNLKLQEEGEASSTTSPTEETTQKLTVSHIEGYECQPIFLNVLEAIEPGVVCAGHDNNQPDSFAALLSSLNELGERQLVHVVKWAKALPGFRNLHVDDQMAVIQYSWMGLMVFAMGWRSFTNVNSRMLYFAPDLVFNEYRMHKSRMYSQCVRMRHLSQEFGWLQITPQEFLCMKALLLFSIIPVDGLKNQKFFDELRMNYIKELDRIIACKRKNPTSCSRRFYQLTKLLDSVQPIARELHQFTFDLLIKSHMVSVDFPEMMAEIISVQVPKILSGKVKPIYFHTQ
Description: Binding affinity to androgen receptor

Estrogen receptor [1] = target: T2, Estrogen receptor (Homo sapiens, UniProt P03372)
T2 sequence (P03372 whole entry): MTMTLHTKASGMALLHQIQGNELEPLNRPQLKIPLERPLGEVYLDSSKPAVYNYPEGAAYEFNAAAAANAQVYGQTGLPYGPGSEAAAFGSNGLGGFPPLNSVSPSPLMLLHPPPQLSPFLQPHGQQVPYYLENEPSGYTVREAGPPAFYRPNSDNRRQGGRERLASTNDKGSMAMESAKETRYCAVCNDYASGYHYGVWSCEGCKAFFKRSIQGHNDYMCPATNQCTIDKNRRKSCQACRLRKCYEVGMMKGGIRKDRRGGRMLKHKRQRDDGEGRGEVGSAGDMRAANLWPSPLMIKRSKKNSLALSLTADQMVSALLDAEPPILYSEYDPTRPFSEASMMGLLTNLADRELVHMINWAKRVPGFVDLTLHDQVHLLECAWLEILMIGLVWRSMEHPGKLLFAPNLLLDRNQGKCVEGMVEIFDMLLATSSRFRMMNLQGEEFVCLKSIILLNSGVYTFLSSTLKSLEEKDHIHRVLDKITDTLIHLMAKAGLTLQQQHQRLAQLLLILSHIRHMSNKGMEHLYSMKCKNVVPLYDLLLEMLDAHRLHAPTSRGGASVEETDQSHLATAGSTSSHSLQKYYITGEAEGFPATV
Description: Binding affinity to human recombinant ERalpha by scintillation proximity assay

Estrogen receptor beta [2] = target: T3, Estrogen receptor beta (Homo sapiens, UniProt Q92731)
Description: Agonist activity at human recombinant ERbeta expressed in HEK293 cells by transactivation assay

Estrogen receptor beta [3] = target: T3, Estrogen receptor beta; remark: listed apart in the source
Description: Binding affinity to human recombinant ERbeta by scintillation proximity assay

Estrogen receptor [4] = target: T2, Estrogen receptor; remark: listed apart in the source
Description: Agonist activity at human recombinant ERalpha expressed in HEK293 cells by transactivation assay

T3 sequence (Q92731 whole entry): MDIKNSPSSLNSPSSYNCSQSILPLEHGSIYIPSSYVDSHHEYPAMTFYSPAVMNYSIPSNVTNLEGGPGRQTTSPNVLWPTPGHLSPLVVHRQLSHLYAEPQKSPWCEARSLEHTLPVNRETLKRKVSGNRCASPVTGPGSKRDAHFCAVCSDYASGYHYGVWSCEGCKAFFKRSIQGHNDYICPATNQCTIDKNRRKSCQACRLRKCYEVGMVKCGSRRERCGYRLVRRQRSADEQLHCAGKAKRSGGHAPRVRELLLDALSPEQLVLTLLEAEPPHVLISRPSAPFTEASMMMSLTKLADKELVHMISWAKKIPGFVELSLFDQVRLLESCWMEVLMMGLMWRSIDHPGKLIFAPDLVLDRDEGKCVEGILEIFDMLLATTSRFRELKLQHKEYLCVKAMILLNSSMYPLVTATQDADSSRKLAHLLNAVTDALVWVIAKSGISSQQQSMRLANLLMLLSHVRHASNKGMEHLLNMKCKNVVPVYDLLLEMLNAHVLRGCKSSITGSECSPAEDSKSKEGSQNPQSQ

Compound	pIC50 (Androgen receptor)	pIC50 (Estrogen receptor [1])	pEC50 (Estrogen receptor beta [2])	pIC50 (Estrogen receptor beta [3])	pEC50 (Estrogen receptor [4])
C[C@]12CC[C@H]3[C@@H](CC=C4[C@H]5CC[C@]43CC[C@@H]5O)[C@@H]1CC[C@@H]2O	5.86	6.50	7.55	7.30	7.36
C[C@]12CC[C@H]3[C@@H](CC=C4[C@H]5CC[C@]43CC[C@H]5O)[C@@H]1CC[C@@H]2O	5.95	5.09	6.70	6.07	6.36
C[C@]12CC[C@H]3[C@@H](CC=C4[C@@H]5C(=O)CC[C@@]43C[C@H]5O)[C@@H]1CC[C@@H]2O	< 6.00	< 5.00	< 6.00	< 5.00	< 6.00
C[C@]12CC[C@H]3[C@@H](CC=C4[C@@H]5C(=O)CC[C@@]43C[C@@H]5O)[C@@H]1CC[C@@H]2O	< 6.00	< 5.00	< 6.00	< 5.00	< 6.00
C[C@]12CC[C@H]3[C@@H](CC=C4C[C@@H]5CC[C@@]43CC(=O)O5)[C@@H]1CC[C@@H]2O	< 6.00	< 5.00	< 6.00	< 5.00	< 6.00
C=C[C@]12CC[C@H](O)CC1=CC[C@H]1[C@@H]3CC[C@H](O)[C@@]3(C)CC[C@@H]12	–	5.65	8.40	–	6.01
C/C=C\[C@]12CC[C@H](O)CC1=CC[C@H]1[C@@H]3CC[C@H](O)[C@@]3(C)CC[C@@H]12	6.14	5.71	7.68	7.80	6.46
C=C[C@]12CCC(=O)C=C1CC[C@H]1[C@@H]3CC[C@H](O)[C@@]3(C)CC[C@@H]12	–	< 5.00	–	–	< 6.00
C[C@]12CC[C@H]3[C@@H](CC=C4[C@H]5CC=C[C@]43CC[C@@H]5O)[C@@H]1CC[C@@H]2O	7.07	5.65	6.88	6.80	5.31
CC[C@]12CC[C@H](O)CC1=CC[C@@H]1[C@@H]2CC[C@]2(C)[C@@H](O)CC[C@@H]12	7.06	5.63	–	7.80	–
C=CC[C@@H]1C2=CC[C@H]3[C@@H]4CC[C@H](O)[C@@]4(C)CC[C@@H]3[C@@]2(C=C)CC[C@@H]1O	7.82	< 5.00	< 6.00	5.52	< 6.00
C[C@]12CC[C@H]3[C@@H](CC[C@H]4[C@H]5CCC[C@]43CC[C@@H]5O)[C@@H]1CC[C@@H]2O	7.17	5.30	6.66	6.49	5.89
C[C@]12CC[C@H]3[C@@H](CC=C4C[C@@H]5CC[C@@]43CCO5)[C@@H]1CC[C@@H]2O	6.15	< 5.00	6.36	< 5.00	< 6.00
C[C@]12CC[C@H]3[C@@H](CC=C4[C@H]5CC[C@]43CCC5=O)[C@@H]1CC[C@@H]2O	–	< 5.00	7.07	5.84	6.39
C[C@]12CC[C@H]3[C@@H](CC4C5=CC(=O)CC[C@@]53C[C@H]4O)[C@@H]1CC[C@@H]2O	< 6.00	< 5.00	< 6.00	< 5.00	< 6.00

Reference: ChEMBL document CHEMBL1139947, “Bridged androstenediol analogs as ER-beta selective SERMs” (Bioorg Med Chem Lett, 2007)
